Patent US10421754B2, “Quinazoline derivative” (CSPC ZHONGQI PHARMACEUTICAL TECHNOLOGY (SHIJIAZHUANG) CO., …, priority 2014, dated 2019)

tested on: SK-OV-3; experiment: In vitro cell experiment (MTT), SK-OV-3; type: cell-based; conditions: 72 h, human ovarian carcinoma cells (EGFR2 overexpressing)
How it was run: (§1)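 Inhibition rates came from OD at 550 nm after 4 h MTT labeling (0.5 mg/mL final) and DMSO solubilization, following 72 h drug exposure at 37° C of cells pre-grown 24 h. Triplicates per concentration, experiments run twice; IC50 by LOGIT method, reported as mean±SD.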

Compound	IC50
COc1cc2c(Nc3ccc(Br)cc3F)ncnc2cc1OCCCCN1CCCC1 [Compound 30, 4-(4-bromo-2-fluoroanilino)-6-methoxy-7-(4-(pyrrolidin-1-yl)butoxy)quinazoline]	2500 nM

tested on: TT; experiment: In vitro cell experiment (MTT), TT; type: cell-based; conditions: 72 h, human thyroid carcinoma cells (RET C634W mutation)
Protocol: (§2) Cells in logarithmic growth phase were seeded at a certain density in a 96-well plate (200 μL/well). The cells were allowed to grow for 24 h and subsequently treated with different concentrations of drugs (including a blank group and a control group) and incubated for 72 h at 37° C. Each concentration in a given experiment was tested in triplicate. After 72 h of exposure, 20 μL of the MTT labeling reagent was added to the medium (the final concentration of MTT was 0.5 mg/mL), and the cells were incubated for additional 4 h at 37° C. Following this process, 180 μL of the medium was removed and 130 μL of DMSO was added to each well, or the medium was completely removed and 150 μL of DMSO was added to each well. Then the plate was shaken and mixed in a micro-oscillator. Finally the optical density (OD) of each sample was measured in a micro-plate reader at 550 nm. Cell inhibition rate was calculated according to the following formula: […]
(§3) According to cell inhibition rates, IC50 was calculated by LOGIT method. The experiments were repeated twice and the data was expressed as means±SD.

Compound	IC50
COc1cc2c(Nc3ccc(Br)cc3F)ncnc2cc1OCCCCN1CCCC1 [Compound 30, 4-(4-bromo-2-fluoroanilino)-6-methoxy-7-(4-(pyrrolidin-1-yl)butoxy)quinazoline]	126 nM

tested on: CFPAC-1; experiment: In vitro cell experiment (MTT), CFPAC-1; type: cell-based; conditions: 72 h, human pancreatic carcinoma cells
Protocol: as §2, §3

Compound	IC50
COc1cc2c(Nc3ccc(Br)cc3F)ncnc2cc1OCCCCN1CCCC1 [Compound 30, 4-(4-bromo-2-fluoroanilino)-6-methoxy-7-(4-(pyrrolidin-1-yl)butoxy)quinazoline]	5150 nM

tested on: HT-29; experiment: In vitro cell experiment (MTT), HT-29; type: cell-based; conditions: 72 h, human colon carcinoma cells (expressing both c-KIT and PDGFR)
Protocol: as §2, §3

Compound	IC50
COc1cc2c(Nc3ccc(Br)cc3F)ncnc2cc1OCCCCN1CCCC1 [Compound 30, 4-(4-bromo-2-fluoroanilino)-6-methoxy-7-(4-(pyrrolidin-1-yl)butoxy)quinazoline]	2190 nM

tested on: A375; experiment: In vitro cell experiment (MTT), A375; type: cell-based; conditions: A-375, 72 h, human melanoma cells (KDR expressing)
Protocol: as §2, §3

Compound	IC50
COc1cc2c(Nc3ccc(Br)cc3F)ncnc2cc1OCCCCN1CCCC1 [Compound 30, 4-(4-bromo-2-fluoroanilino)-6-methoxy-7-(4-(pyrrolidin-1-yl)butoxy)quinazoline]	196 nM

tested on: HCT116; experiment: In vitro cell experiment (MTT), HCT116; type: cell-based; conditions: HCT-116, 72 h, human colon carcinoma cells
How it was run: as §1

Compound	IC50
COc1cc2c(Nc3ccc(Br)cc3F)ncnc2cc1OCCCCN1CCCC1 [Compound 30, 4-(4-bromo-2-fluoroanilino)-6-methoxy-7-(4-(pyrrolidin-1-yl)butoxy)quinazoline]	775 nM

tested on: H292; experiment: In vitro cell experiment (MTT), H292; type: cell-based; conditions: NCI-H292, 72 h, human lung carcinoma cells (EGFR1 overexpressing)
How it was run: as §1

Compound	IC50
COc1cc2c(Nc3ccc(Br)cc3F)ncnc2cc1OCCCCN1CCCC1 [Compound 30, 4-(4-bromo-2-fluoroanilino)-6-methoxy-7-(4-(pyrrolidin-1-yl)butoxy)quinazoline]	43.2 nM

tested on: Bel-7402; experiment: In vitro cell experiment (MTT), Bel-7402; type: cell-based; conditions: 72 h, human hepatoma carcinoma cells
Protocol: as §2, §3

Compound	IC50
COc1cc2c(Nc3ccc(Br)cc3F)ncnc2cc1OCCCCN1CCCC1 [Compound 30, 4-(4-bromo-2-fluoroanilino)-6-methoxy-7-(4-(pyrrolidin-1-yl)butoxy)quinazoline]	4570 nM

molecular target: EGFR (Homo sapiens, UniProt P00533); experiment: In vitro enzyme experiment (ELISA), EGFR; type: biochemical; conditions: Poly (Glu, Tyr)4:1 substrate, 5 μM ATP
Protocol: EGFR: Human epidermal growth factor receptor 1
(§4) ELISA: The enzyme plate was coated by enzyme reaction substrate (Poly (Glu, Tyr)4:1) at a density of 20 μg/ml. Then the enzyme, the sample and 5 μM ATP were mixed in the well to react. After the reaction, the substrate phosphorylation was detected by anti-phosphotyrosine monoclonal antibody (4G10). In the next step, the goat-anti-mouse IgG linking with horse radish peroxidase (HRP) and tetramethylbenzidine (TMB) were added sequentially in the well to evaluate the level of substrate phosphorylation by the degree of color depth. In the experiment, a blank group without tyrosine kinase and a control group with the corresponding concentration of DMSO were established. Finally, 50 μL/well of H2SO4 at a concentration of 0.18M was added in each well to stop the reaction. The optical density (OD) of each sample was measured in a micro-plate reader at 450 nm.
(§5) The relative inhibition rate of the compound against tyrosine kinase protein was determined.
(§6) According to the inhibition rates at different concentrations, IC50 was calculated by LOGIT method. The experiments were repeated three times, and the average of three IC50 values was the final index to evaluate the ability of inhibition.

Compound	IC50
COc1cc2c(Nc3ccc(Br)cc3F)ncnc2cc1OCCCCN1CCCC1 [Compound 30, 4-(4-bromo-2-fluoroanilino)-6-methoxy-7-(4-(pyrrolidin-1-yl)butoxy)quinazoline]	118 nM

tested on: not listed separately; experiment: Mouse maximum tolerated dose (MTD) experiment; conditions: in vivo, mice, oral, administered 7 days then observed 7 days
How it was run: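 Oral dosing for 7 days at twofold-spaced levels from 31.25 up to 1000 mg/kg, three randomized, weight-matched healthy mice per level. Animals were then watched for a further 7 drug-free days.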

Compound	MTD
COc1cc2c(Nc3ccc(Br)cc3F)ncnc2cc1OCCCCN1CCCC1 [Compound 30, 4-(4-bromo-2-fluoroanilino)-6-methoxy-7-(4-(pyrrolidin-1-yl)butoxy)quinazoline]	250 to 500 mg/kg

tested on: SGC7901; experiment: In vitro cell experiment (MTT), SGC7901; type: cell-based; conditions: SGC-7901, 72 h, human gastric carcinoma cells
Protocol: as §2, §3

Compound	IC50
COc1cc2c(Nc3ccc(Br)cc3F)ncnc2cc1OCCCCN1CCCC1 [Compound 30, 4-(4-bromo-2-fluoroanilino)-6-methoxy-7-(4-(pyrrolidin-1-yl)butoxy)quinazoline]	4190 nM

tested on: HCC827; experiment: In vitro cell experiment (MTT), HCC827; type: cell-based; conditions: 72 h, human non-small cell lung carcinoma (EGFR1 19 exon mutation)
How it was run: as §1

Compound	IC50
COc1cc2c(Nc3ccc(Br)cc3F)ncnc2cc1OCCCCN1CCCC1 [Compound 30, 4-(4-bromo-2-fluoroanilino)-6-methoxy-7-(4-(pyrrolidin-1-yl)butoxy)quinazoline]	0.5 nM

tested on: HUVEC; experiment: In vitro cell experiment (MTT), HUVEC; type: cell-based; conditions: 72 h, human umbilical vein endothelial cell (KDR overexpressing)
Protocol: as §2, §3

Compound	IC50
COc1cc2c(Nc3ccc(Br)cc3F)ncnc2cc1OCCCCN1CCCC1 [Compound 30, 4-(4-bromo-2-fluoroanilino)-6-methoxy-7-(4-(pyrrolidin-1-yl)butoxy)quinazoline]	27.5 nM

tested on: 3T3swiss; experiment: In vitro cell experiment (MTT), 3T3swiss; type: cell-based; conditions: Fibroblast, 72 h, mouse fibroblasts (PDGFR overexpressing)
Protocol: as §2, §3

Compound	IC50
COc1cc2c(Nc3ccc(Br)cc3F)ncnc2cc1OCCCCN1CCCC1 [Compound 30, 4-(4-bromo-2-fluoroanilino)-6-methoxy-7-(4-(pyrrolidin-1-yl)butoxy)quinazoline]	1490 nM

tested on: A498; experiment: In vitro cell experiment (MTT), A498; type: cell-based; conditions: 72 h, human renal carcinoma cells
Protocol: as §2, §3

Compound	IC50
COc1cc2c(Nc3ccc(Br)cc3F)ncnc2cc1OCCCCN1CCCC1 [Compound 30, 4-(4-bromo-2-fluoroanilino)-6-methoxy-7-(4-(pyrrolidin-1-yl)butoxy)quinazoline]	2880 nM

tested on: PC-9; experiment: In vitro cell experiment (MTT), PC-9; type: cell-based; conditions: 72 h, human non-small-cell lung carcinoma cells (EGFR1 19 exon mutation)
Protocol: as §2, §3

Compound	IC50
COc1cc2c(Nc3ccc(Br)cc3F)ncnc2cc1OCCCCN1CCCC1 [Compound 30, 4-(4-bromo-2-fluoroanilino)-6-methoxy-7-(4-(pyrrolidin-1-yl)butoxy)quinazoline]	7 nM

molecular target: FLT-1 (Homo sapiens, UniProt P17948); experiment: In vitro enzyme experiment (ELISA), FLT-1; type: biochemical; conditions: Poly (Glu, Tyr)4:1 substrate, 5 μM ATP
Protocol: FLT-1: Human vascular endothelial growth factor receptor 1
as §4, §5, §6

Compound	IC50
COc1cc2c(Nc3ccc(Br)cc3F)ncnc2cc1OCCCCN1CCCC1 [Compound 30, 4-(4-bromo-2-fluoroanilino)-6-methoxy-7-(4-(pyrrolidin-1-yl)butoxy)quinazoline]	25.9 nM

molecular target: AXL (Homo sapiens, UniProt P30530); experiment: In vitro enzyme experiment (ELISA), AXL; type: biochemical; conditions: Poly (Glu, Tyr)4:1 substrate, 5 μM ATP
Sequence (P30530 473-894): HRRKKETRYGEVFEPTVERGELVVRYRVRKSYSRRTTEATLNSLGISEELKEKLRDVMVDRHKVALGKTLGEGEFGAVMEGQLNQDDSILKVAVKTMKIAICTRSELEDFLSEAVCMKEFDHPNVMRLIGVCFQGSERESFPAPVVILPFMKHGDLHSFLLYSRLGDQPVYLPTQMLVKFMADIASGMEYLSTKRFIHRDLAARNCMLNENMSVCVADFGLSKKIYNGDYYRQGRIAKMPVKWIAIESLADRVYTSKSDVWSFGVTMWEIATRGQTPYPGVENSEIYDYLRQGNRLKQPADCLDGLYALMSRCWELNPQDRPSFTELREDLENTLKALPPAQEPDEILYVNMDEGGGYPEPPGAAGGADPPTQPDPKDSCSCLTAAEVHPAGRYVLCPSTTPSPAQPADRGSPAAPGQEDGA
Protocol: as §4, with “AXL: Anaplastic lymphoma kinase Methods: ELISA:” for “ELISA:”, “nm. The relative inhibition rate of the compound against tyrosine kinase protein was determined. According to the inhibition rates at different concentrations, IC50 was calculated by LOGIT method. The experiments were repeated three times, and the average of three IC50 values was the final index to evaluate the ability of inhibition.” for “nm.”

Compound	IC50
COc1cc2c(Nc3ccc(Br)cc3F)ncnc2cc1OCCCCN1CCCC1 [Compound 30, 4-(4-bromo-2-fluoroanilino)-6-methoxy-7-(4-(pyrrolidin-1-yl)butoxy)quinazoline]	2010 nM

tested on: Eca109; experiment: In vitro cell experiment (MTT), Eca109; type: cell-based; conditions: ECa-109, 72 h, human esophageal carcinoma cells
Protocol: as §2, §3

Compound	IC50
COc1cc2c(Nc3ccc(Br)cc3F)ncnc2cc1OCCCCN1CCCC1 [Compound 30, 4-(4-bromo-2-fluoroanilino)-6-methoxy-7-(4-(pyrrolidin-1-yl)butoxy)quinazoline]	5520 nM

molecular target: FGFR-1 (Homo sapiens, UniProt P11362); experiment: In vitro enzyme experiment (ELISA), FGFR-1; type: biochemical; conditions: Poly (Glu, Tyr)4:1 substrate, 5 μM ATP
Sequence (P11362 22-822, species assumed): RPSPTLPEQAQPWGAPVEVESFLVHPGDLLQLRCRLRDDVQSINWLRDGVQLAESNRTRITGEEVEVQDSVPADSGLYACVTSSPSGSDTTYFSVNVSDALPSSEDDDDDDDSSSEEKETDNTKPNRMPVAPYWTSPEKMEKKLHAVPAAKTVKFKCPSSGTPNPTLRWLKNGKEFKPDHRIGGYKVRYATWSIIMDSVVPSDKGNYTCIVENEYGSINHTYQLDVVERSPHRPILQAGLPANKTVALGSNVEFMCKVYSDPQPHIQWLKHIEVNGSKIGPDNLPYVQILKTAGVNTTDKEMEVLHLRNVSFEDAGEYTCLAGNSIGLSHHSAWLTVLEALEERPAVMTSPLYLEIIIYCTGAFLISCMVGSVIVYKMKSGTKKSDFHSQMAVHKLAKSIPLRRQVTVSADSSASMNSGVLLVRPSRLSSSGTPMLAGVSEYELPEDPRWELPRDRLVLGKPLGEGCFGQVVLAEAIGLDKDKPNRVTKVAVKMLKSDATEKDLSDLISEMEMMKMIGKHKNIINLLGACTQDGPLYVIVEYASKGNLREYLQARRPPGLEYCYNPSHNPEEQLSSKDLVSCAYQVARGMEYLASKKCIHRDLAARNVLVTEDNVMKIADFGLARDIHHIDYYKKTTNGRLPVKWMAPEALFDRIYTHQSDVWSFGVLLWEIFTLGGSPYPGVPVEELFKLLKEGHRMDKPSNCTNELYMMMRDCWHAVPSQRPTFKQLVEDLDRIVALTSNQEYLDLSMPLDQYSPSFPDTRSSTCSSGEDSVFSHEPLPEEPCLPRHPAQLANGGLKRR
Protocol: FGFR-1: Fibroblast growth factor receptor 1
as §4, §5, §6

Compound	IC50
COc1cc2c(Nc3ccc(Br)cc3F)ncnc2cc1OCCCCN1CCCC1 [Compound 30, 4-(4-bromo-2-fluoroanilino)-6-methoxy-7-(4-(pyrrolidin-1-yl)butoxy)quinazoline]	25.8 nM

molecular target: RET (Homo sapiens, UniProt P07949); experiment: In vitro enzyme experiment (ELISA), RET; type: biochemical; conditions: Poly (Glu, Tyr)4:1 substrate, 5 μM ATP
Protocol: RET: A receptor involved in thyroid cancer
as §4, §5, §6

Compound	IC50
COc1cc2c(Nc3ccc(Br)cc3F)ncnc2cc1OCCCCN1CCCC1 [Compound 30, 4-(4-bromo-2-fluoroanilino)-6-methoxy-7-(4-(pyrrolidin-1-yl)butoxy)quinazoline]	14.6 nM

tested on: A431; experiment: In vitro cell experiment (MTT), A431; type: cell-based; conditions: A-431, 72 h, human epidermoid carcinoma (EGFR1 overexpressing)
Protocol: as §2, §3

Compound	IC50
COc1cc2c(Nc3ccc(Br)cc3F)ncnc2cc1OCCCCN1CCCC1 [Compound 30, 4-(4-bromo-2-fluoroanilino)-6-methoxy-7-(4-(pyrrolidin-1-yl)butoxy)quinazoline]	1570 nM

molecular target: PDGFRβ (Homo sapiens, UniProt P09619); experiment: In vitro enzyme experiment (ELISA), PDGFRβ; type: biochemical; conditions: Poly (Glu, Tyr)4:1 substrate, 5 μM ATP
Sequence (P09619 33-1106, species assumed): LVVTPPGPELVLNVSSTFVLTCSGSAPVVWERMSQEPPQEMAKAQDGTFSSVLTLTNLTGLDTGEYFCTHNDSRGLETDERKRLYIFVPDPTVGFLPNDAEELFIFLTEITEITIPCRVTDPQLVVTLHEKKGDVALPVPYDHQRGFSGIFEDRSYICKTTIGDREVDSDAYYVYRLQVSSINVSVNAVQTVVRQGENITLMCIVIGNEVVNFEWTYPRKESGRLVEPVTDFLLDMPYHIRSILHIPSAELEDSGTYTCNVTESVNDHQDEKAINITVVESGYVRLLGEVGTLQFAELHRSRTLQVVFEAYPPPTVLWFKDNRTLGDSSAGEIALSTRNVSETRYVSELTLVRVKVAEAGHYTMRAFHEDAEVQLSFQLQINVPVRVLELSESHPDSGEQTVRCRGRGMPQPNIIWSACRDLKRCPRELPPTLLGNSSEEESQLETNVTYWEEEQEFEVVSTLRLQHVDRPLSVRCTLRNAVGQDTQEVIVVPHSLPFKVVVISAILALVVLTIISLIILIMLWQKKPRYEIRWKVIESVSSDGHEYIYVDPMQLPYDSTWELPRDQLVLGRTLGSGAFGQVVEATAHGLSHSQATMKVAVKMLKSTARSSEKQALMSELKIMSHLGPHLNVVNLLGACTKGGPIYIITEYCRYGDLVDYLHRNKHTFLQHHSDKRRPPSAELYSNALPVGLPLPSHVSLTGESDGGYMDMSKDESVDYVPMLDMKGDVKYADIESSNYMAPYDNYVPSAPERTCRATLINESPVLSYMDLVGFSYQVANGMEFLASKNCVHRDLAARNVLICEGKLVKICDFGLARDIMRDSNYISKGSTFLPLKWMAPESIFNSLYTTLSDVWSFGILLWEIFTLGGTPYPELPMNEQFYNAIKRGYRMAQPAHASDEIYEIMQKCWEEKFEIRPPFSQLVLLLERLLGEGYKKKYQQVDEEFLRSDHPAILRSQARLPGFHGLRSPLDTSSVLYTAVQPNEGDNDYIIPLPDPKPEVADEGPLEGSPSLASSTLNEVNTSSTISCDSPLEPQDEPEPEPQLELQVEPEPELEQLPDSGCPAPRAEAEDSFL
Protocol: PDGFRβ: Platelet-derived growth factor receptor β
as §4, §5, §6

Compound	IC50
COc1cc2c(Nc3ccc(Br)cc3F)ncnc2cc1OCCCCN1CCCC1 [Compound 30, 4-(4-bromo-2-fluoroanilino)-6-methoxy-7-(4-(pyrrolidin-1-yl)butoxy)quinazoline]	247 nM

molecular target: KDR (Homo sapiens, UniProt P35968); experiment: In vitro enzyme experiment (ELISA), KDR; type: biochemical; conditions: Poly (Glu, Tyr)4:1 substrate, 5 μM ATP
Sequence (P35968 20-1356): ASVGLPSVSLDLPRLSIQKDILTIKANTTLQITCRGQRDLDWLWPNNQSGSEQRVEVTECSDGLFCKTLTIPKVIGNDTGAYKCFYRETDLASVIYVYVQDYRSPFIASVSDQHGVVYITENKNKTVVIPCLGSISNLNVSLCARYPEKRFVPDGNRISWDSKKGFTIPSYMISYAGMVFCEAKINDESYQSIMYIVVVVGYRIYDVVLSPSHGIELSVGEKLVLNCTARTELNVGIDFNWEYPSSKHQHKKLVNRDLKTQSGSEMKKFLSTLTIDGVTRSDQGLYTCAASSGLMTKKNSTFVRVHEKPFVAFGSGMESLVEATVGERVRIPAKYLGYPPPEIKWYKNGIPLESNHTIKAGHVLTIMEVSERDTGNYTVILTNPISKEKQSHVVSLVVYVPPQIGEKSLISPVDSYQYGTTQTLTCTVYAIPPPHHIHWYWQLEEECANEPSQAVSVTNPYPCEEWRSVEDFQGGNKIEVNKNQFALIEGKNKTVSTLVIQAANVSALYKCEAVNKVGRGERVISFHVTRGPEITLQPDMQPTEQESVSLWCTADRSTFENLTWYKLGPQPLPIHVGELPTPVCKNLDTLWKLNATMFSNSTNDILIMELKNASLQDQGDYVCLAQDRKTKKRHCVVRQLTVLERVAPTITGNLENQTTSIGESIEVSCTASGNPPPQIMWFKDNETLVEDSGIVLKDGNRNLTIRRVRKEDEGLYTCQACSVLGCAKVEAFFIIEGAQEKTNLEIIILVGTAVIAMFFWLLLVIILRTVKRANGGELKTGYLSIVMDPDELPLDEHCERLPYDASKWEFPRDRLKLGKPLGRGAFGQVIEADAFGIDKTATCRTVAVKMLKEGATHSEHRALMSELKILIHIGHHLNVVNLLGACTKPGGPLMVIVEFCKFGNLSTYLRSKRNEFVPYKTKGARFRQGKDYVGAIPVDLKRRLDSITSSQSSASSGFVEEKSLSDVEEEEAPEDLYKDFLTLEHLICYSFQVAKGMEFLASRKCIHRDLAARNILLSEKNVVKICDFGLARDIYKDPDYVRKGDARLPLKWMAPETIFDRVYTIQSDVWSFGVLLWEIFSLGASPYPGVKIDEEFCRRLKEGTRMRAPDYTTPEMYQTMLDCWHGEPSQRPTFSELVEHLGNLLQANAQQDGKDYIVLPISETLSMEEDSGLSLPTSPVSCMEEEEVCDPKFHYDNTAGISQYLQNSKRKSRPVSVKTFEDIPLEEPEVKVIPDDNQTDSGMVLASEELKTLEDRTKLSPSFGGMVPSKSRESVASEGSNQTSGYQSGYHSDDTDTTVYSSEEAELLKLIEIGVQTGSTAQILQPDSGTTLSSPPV
Protocol: KDR: Human vascular endothelial growth factor receptor 2
as §4, §5, §6

Compound	IC50
COc1cc2c(Nc3ccc(Br)cc3F)ncnc2cc1OCCCCN1CCCC1 [Compound 30, 4-(4-bromo-2-fluoroanilino)-6-methoxy-7-(4-(pyrrolidin-1-yl)butoxy)quinazoline]	15.7 nM

molecular target: BTK (Homo sapiens, UniProt Q06187); experiment: In vitro enzyme experiment (ELISA), BTK; type: biochemical; conditions: Poly (Glu, Tyr)4:1 substrate, 5 μM ATP
Sequence (Q06187 whole entry, species assumed): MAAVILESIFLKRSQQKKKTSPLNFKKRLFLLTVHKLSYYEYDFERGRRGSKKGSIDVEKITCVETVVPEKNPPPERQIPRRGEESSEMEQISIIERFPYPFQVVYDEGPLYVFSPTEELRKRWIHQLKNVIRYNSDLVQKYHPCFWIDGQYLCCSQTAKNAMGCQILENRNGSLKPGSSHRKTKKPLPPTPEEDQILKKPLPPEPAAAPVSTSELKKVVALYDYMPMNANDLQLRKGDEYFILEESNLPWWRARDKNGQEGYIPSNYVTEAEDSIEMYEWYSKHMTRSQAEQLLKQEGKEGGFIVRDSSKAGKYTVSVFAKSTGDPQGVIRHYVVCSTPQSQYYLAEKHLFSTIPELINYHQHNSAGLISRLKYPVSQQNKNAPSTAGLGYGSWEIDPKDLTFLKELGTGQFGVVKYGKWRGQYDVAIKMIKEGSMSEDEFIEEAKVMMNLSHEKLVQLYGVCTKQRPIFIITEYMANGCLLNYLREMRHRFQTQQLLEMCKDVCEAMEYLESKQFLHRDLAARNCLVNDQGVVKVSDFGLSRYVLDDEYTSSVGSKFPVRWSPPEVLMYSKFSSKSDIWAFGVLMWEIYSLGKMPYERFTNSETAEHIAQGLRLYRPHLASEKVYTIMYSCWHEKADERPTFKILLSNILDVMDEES
Protocol: BTK: Bruton tyrosine kinase
as §4, §5, §6

Compound	IC50
COc1cc2c(Nc3ccc(Br)cc3F)ncnc2cc1OCCCCN1CCCC1 [Compound 30, 4-(4-bromo-2-fluoroanilino)-6-methoxy-7-(4-(pyrrolidin-1-yl)butoxy)quinazoline]	261 nM

tested on: A549; experiment: In vitro cell experiment (MTT), A549; type: cell-based; conditions: 72 h, human non-small-cell lung carcinoma cells (EGFR1 wildtype)
How it was run: as §1

Compound	IC50
COc1cc2c(Nc3ccc(Br)cc3F)ncnc2cc1OCCCCN1CCCC1 [Compound 30, 4-(4-bromo-2-fluoroanilino)-6-methoxy-7-(4-(pyrrolidin-1-yl)butoxy)quinazoline]	1510 nM
